From publication PMC11181322, “Copper(II) Complexes with Isomeric Morpholine-Substituted 2-Formylpyridine Thiosemicarbazone Hybrids as Potential Anticancer Drugs Inhibiting Both Ribonucleotide Reductase and Tubulin Polymerization: The Morpholine Position Matters” (Journal of Medicinal Chemistry, 2024)

Tests used:
[1] = Redox reaction of the copper(II) complexes with GSH (UV–vis, anoxic); format: physicochemical; settings: pH 7.4 (50 mM HEPES); ccomplex = 25 μM; cGSH = 1.25 mM; pure water; 25 °C
Text: The direct reduction of the copper(II) complexes with the antioxidant GSH was investigated in anoxic aqueous solution at pH 7.4 by UV–vis spectrophotometry. At this pH, the complex [Cu(HL)]^+ is assumed to predominate according to the speciation studies (vide supra). The spectral changes were monitored in the wavelength range 250–550 nm by using a large excess of GSH (50 equiv). In this wavelength range, the spectral changes are due to the absorption of the metal complex and the ligand.
These changes imply that, after reduction in the presence of excess GSH, the generated copper(I) complex is not stable and liberates the free TSC ligand. […] The time-dependent absorbance changes are shown for all the studied systems in Figure 4b. The observed rate constants (kobs) were calculated (Table 2) as a semiquantitative description of the reaction kinetics. […] The obtained kobs values fall into the range for Triapine (0.10 min^–1), 2-pyridinecarboxaldehyde TSC (0.041 min^–1), and N-monomethylated N-methyl-Triapine (0.077 min^–1), measured under similar conditions.[67] To find out whether this slightly different kinetics for 6 and 3–5 is in accordance with their reduction potentials, cyclic voltammetry was performed.
The redox reaction of the copper(II) complexes with GSH and ascorbic acid was studied at 25.0 ± 0.1 °C on a Hewlett-Packard 8452A diode array spectrophotometer using a special, tightly closed tandem cuvette (Hellma Tandem Cell, 238-QS). The reactants were separated until the reaction was triggered. Both isolated pockets of the cuvette were completely deoxygenated by bubbling a stream of Ar for 10 min before mixing the reactants. Spectra were recorded before and then immediately after the mixing, and changes were followed until no further absorbance change was observed. One of the isolated pockets contained the reducing agent, and the other contained the complex. Their final concentrations were 1250 and 25 μM, respectively. The pH of all the solutions was adjusted to 7.40 by 50 mM HEPES buffer. The ionic strength of the solution was 0.1 M (KCl). The stock solutions of the reducing agents and the complexes were freshly prepared every day. During the calculations, the absorbance (A) – time (t) curves were fitted and analyzed at the λmax of the complex. (A0 – Afinal) × e^(−a×t) + Afinal was the fitting equation used, where the A0, Afinal, and a parameters were refined and accepted at the minimal value of the weighted sum of squared residuals (difference between the measured and calculated absorbance values) at the given wavelength. Then, observed rate constants (kobs) of the redox reaction were obtained from the data points of the simulated absorbance–time curves as the slope of the ln(A/A0) vs time plots.

[2] = Cyclic voltammetry of copper(II) complexes in DMSO/n-Bu4NPF6; format: physicochemical; settings: for Epa^1: first anodic peak potential vs Fc+/Fc; for Epa^1 / Epa^2: 100 mV s^–1; for Epa^2: second anodic peak potential vs Fc+/Fc; for E1/2^red: vs Fc+/Fc, scan rate 100 mV s^–1
Protocol: The redox properties of the copper(II) complexes 3–6 were investigated by electrochemical, EPR, and UV–vis spectroelectrochemical measurements. […] While the half-wave reduction potentials E1/2^red for complexes 3–5 were almost the same (−0.82 V vs Fc^+/Fc), the E1/2^red for 6 is by 0.07 V more positive (−0.75 V vs Fc^+/Fc), as summarized in Table 4. The corresponding proligands are not redox active in the cathodic part (not shown).
Cyclic voltammetric experiments with 0.5 mM solutions of copper(II) complexes 3–6 in 0.1 M nBu4NPF6 (puriss quality from Fluka; dried under reduced pressure at 70 °C for 24 h before use) as supporting electrolyte in DMSO (SeccoSolv max. 0.025% H2O, Merck) were performed under Ar using a three-electrode arrangement with Pt wire as the counter electrode and Ag wire as the pseudoreference electrode. Glassy carbon or Pt wire served as the working electrode. Ferrocene purchased from Sigma-Aldrich was used as the internal potential standard without further purification. All potentials in voltammetric studies were quoted vs ferricenium/ferrocene (Fc^+/Fc) as the redox couple. A Heka PG310USB (Lambrecht, Germany) potentiostat with a PotMaster 2.73 software package served for the potential control in voltammetric studies. In situ ultraviolet–visible-near-infrared (UV–vis–NIR) spectroelectrochemical measurements were performed on a spectrometer (Avantes, Model AvaSpec-2048 × 14-USB2 in the spectroelectrochemical cell kit ([…]3) with the Pt-microstructured honeycomb working electrode, purchased from Pine Research Instrumentation. The cell was positioned in the CUV-UV Cuvette Holder (Ocean Optics) connected to the diode array UV–vis-NIR spectrometer by optical fibers. UV–vis-NIR spectra were processed using the AvaSoft 7.7 software package. Halogen and deuterium lamps were used as light sources (Avantes, Model AvaLight-DH-S-BAL).

purified tubulin = assay: Inhibition of polymerization of purified tubulin; format: biochemical; settings: read-out: inhibition of tubulin IC50 ± SD
MES-SA cells = assay: Fluorescent protein-based cytotoxicity assay, MES-SA; format: cell-based, human; settings: 120 h; ± SD; n = 3
Text: (§1) The cytotoxic activity of proligands H2L^3–H2L^6 and their copper(II) complexes 3–6 was investigated in the MES-SA (human uterine sarcoma) and in its MDR counterpart (MES-SA/Dx5) cell lines by a fluorescent protein-based assay.[73]
(§2) The human uterine sarcoma cell lines MES-SA and the doxorubicin selected MES-SA-Dx5 were obtained from ATCC (MES-SA: No. CRL-1976, MES-SA/Dx5: No. CRL-1977) and were used for the intracellular ROS generation studies. For cytotoxicity, we used the fluorescent cell lines MES-SA mCherry and MES-SA/Dx5 eGFP, which were created by lentiviral transductions of the respective genes.[73] The phenotype of the resistant cells was maintained by 500 nM doxorubicin treatment a week before use and was verified using cytotoxicity assays. Cells were cultivated at 37 °C, 5% CO2 in Dulbecco’s modified Eagle's Medium (DMEM, Sigma-Aldrich), supplemented with 10% fetal bovine serum, 5 mM glutamine, and 50 unit/mL penicillin and streptomycin (Thermo Fisher).
(§3) MES-SA mCherry and MES-SA/Dx5 eGFP cell suspensions were seeded after trypsinization at 2500 cells/20 μL density on 384-well plates, containing 20 μL of completed medium. The next day, serial dilution of the compounds was prepared and added in an additional 20 μL, with or without 0.4 μM Tariquidar. Liquid handling steps were performed by a Hamilton StarLet robot. […] The mean and standard deviation of the pIC50 values were calculated and converted to IC50 values.

MES-SA/Dx5 cells = assay: Fluorescent protein-based cytotoxicity assay, MES-SA/Dx5; format: cell-based, human; settings: for IC50: 120 h, ± SD, n = 3; for SR, selectivity ratio IC50 (MES-SA)/IC50 (MES-SA/Dx5): in the absence of TQ
Text: as §1, §2, §3

Row | SMILES | kobs, redox reaction with GSH [1] [min^–1] | Epa^1 [2] | Epa^2 [2] | E1/2^red [2] | IC50 (purified tubulin) [µM] | IC50 (MES-SA cells) [µM] | IC50 (MES-SA/Dx5 cells) [µM] | SR, selectivity ratio IC50 (MES-SA)/IC50 (MES-SA/Dx5) (MES-SA/Dx5 cells)
1 | Cc1cc(NC(=NN=Cc2cc(CN3CCOCC3)ccn2)[S][Cu][Cl])cc(C)c1O [complex 4, [Cu(HL^4)Cl]·1.5H2O] | 0.079 ± 0.019 | +0.31 V | +0.77 V | –0.82 V | 15 ± 1 | 19.2 ± 1.7 | 5.8 ± 0.1 | 3.33
2 | Cc1cc(NC(=NN=Cc2ccc(CN3CCOCC3)cn2)[S][Cu][Cl])cc(C)c1O [complex 5, [Cu(HL^5)Cl]·2.5H2O] | 0.058 ± 0.010 | +0.29 V | +0.69 V | –0.82 V | 15 ± 0.4 | 31 ± 6.2 | 8.1 ± 2 | 3.81
3 | Cc1cc(NC(=NN=Cc2cccc(CN3CCOCC3)n2)[S][Cu][Cl])cc(C)c1O [complex 6, [Cu(HL^6)Cl]·H2O] | 0.165 ± 0.011 | +0.26 V | +0.66 V | – | 5 ± 0.3 | 0.29 | 1.4 ± 0.2 | 0.21
